From paper PMC11240139, “Exploring the antitumor potential of novel quinoline derivatives via tubulin polymerization inhibition in breast cancer; design, synthesis and molecular docking” (RSC Advances, 2024)

How the values were obtained:
Type in all cases: cell-based
SN12C (renal cancer) = experiment: NCI-60 SRB cytotoxicity screen; details: Homo sapiens, single dose 10 μM, read-out: growth inhibition (GI%)
COLO 205 (colon cancer) = experiment: NCI-60 SRB cytotoxicity screen; details: Homo sapiens; COLO 205, single dose 10 μM; read-out: growth inhibition (GI%)
SNB-19 (CNS cancer) = experiment: NCI-60 SRB cytotoxicity screen; details: Homo sapiens; SNB-19, single dose 10 μM; read-out: growth inhibition (GI%)
HS 578T (breast cancer) = experiment: NCI-60 SRB cytotoxicity screen; details: Homo sapiens, single dose 10 μM, read-out: growth inhibition (GI%)
[1] = tested on: NCI-H226 (non-small cell lung cancer); experiment: NCI-60 SRB cytotoxicity screen; details: Homo sapiens; NCI-H226, single dose 10 μM; read-out: growth inhibition (GI%)
OVCAR-8 (ovarian cancer) = experiment: NCI-60 SRB cytotoxicity screen; details: Homo sapiens; OVCAR-8, single dose 10 μM; read-out: growth inhibition (GI%)
SF-539 (CNS cancer) = experiment: NCI-60 SRB cytotoxicity screen; details: Homo sapiens; SF-539, single dose 10 μM; read-out: growth inhibition (GI%)
[2] = tested on: 60 cancer cell lines (NCI); experiment: NCI-60 single-dose screen, overall verdict over the panel; details: single dose 10 μM, whole panel
Method: (§1) The cytotoxic activity of the synthesized quinoline derivatives was determined by the national cancer institute (NCI, Bethesda, Maryland, USA) against 60 different cancer cell lines at a single high dose (10^−5 M) in the full NCI 60 cell panel using the sulforhodamine B assay for cell viability evaluation. In summary, 5 × 10^3 cells were in 96-well plate and incubated in complete media for 24 h. Cells were treated with 100 μL of media containing each newly synthesized compound. After drug exposure, cells were fixed by replacing media with 150 μL of 10% TCA and incubated at 4 °C for 1 h. The TCA solution was removed, and the cells were washed 5 times with distilled water. Aliquots of 70 μL SRB solution (0.4% w/v) were added and incubated in a dark place at room temperature for 10 min. The plates were washed 3 times with 1% acetic acid and allowed to air-dry overnight. Then, 150 μL of TRIS (10 mM) was added to dissolve protein-bound SRB stain. The absorbance was measured at 540 nm.% Cytotoxicity = [1 − (AVx/AVNC)] × 100where AVx denotes the average absorbance of the sample well and AVNC denotes the average absorbance of the negative control.

SNB-75 (CNS cancer) = experiment: NCI-60 SRB cytotoxicity screen; details: Homo sapiens, SNB-75, SNB-75, single dose 10 μM; read-out: growth inhibition (GI%)
[3] = tested on: NCI-H23 (non-small cell lung cancer); experiment: NCI-60 SRB cytotoxicity screen; details: Homo sapiens; NCI-H23, single dose 10 μM; read-out: growth inhibition (GI%)
UO-31 (renal cancer) = experiment: NCI-60 SRB cytotoxicity screen; details: Homo sapiens; UO-31, single dose 10 μM; read-out: growth inhibition (GI%)
[4] = tested on: MDA-MB-231/ATCC (breast cancer); experiment: NCI-60 SRB cytotoxicity screen; details: Homo sapiens, MDA-MB-231, read-out: growth inhibition (GI%);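 further: growth inhibition in percent at a single 10 µM dose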
SK-MEL-28 (melanoma) = experiment: NCI-60 SRB cytotoxicity screen; details: Homo sapiens; SK-MEL-28, single dose 10 μM; read-out: growth inhibition (GI%)
M14 (melanoma) = experiment: NCI-60 SRB cytotoxicity screen; details: Homo sapiens; M14, single dose 10 μM; read-out: growth inhibition (GI%)
[5] = tested on: NCI-H322M (non-small cell lung cancer); experiment: NCI-60 SRB cytotoxicity screen; details: Homo sapiens, single dose 10 μM, read-out: growth inhibition (GI%)
OVCAR-3 (ovarian cancer) = experiment: NCI-60 SRB cytotoxicity screen; details: Homo sapiens; OVCAR-3, single dose 10 μM; read-out: growth inhibition (GI%)
T-47D (breast cancer) = experiment: NCI-60 SRB cytotoxicity screen; details: Homo sapiens, T47D, single dose 10 μM, read-out: growth inhibition (GI%)
LOX IMVI (melanoma) = experiment: NCI-60 SRB cytotoxicity screen; details: Homo sapiens, single dose 10 μM, read-out: growth inhibition (GI%)
SF-268 (CNS cancer) = experiment: NCI-60 SRB cytotoxicity screen; details: Homo sapiens; SF-268, single dose 10 μM; read-out: growth inhibition (GI%)
[6] = tested on: MDA-MB-468 (breast cancer); experiment: NCI-60 SRB cytotoxicity screen; details: Homo sapiens; MDA-MB-468, single dose 10 μM; read-out: growth inhibition (GI%)
Method: as §1
The methodology of the NCI anticancer screening has been described in details at (http://www.dtp.nci.nih.gov). The anticancer assay was performed in full NCI 60 cell lines derived from nine tumor subpanels, including leukemia, lung, colon, CNS, melanoma, ovarian, renal, prostate, and breast cancer cell lines.
The cell lines were first cultured for 48 h, after being exposed to a single dosage of the compound. Using the protein-binding dye sulforhodamine B dye, cell proliferation and viability were evaluated (SRB assay). The results were presented for each chemical as GI%. Compound that met NCI criteria for substantial activity were further evaluated using a five-dose experiment. The NCI60 cell lines were treated with the chemicals in this assay at five different concentration levels (0.01, 0.1, 1, 10, and 100 μM).

OVCAR-5 (ovarian cancer) = experiment: NCI-60 SRB cytotoxicity screen; details: Homo sapiens; OVCAR-5, single dose 10 μM; read-out: growth inhibition (GI%)
K-562 (leukemia) = experiment: NCI-60 SRB cytotoxicity screen; details: Homo sapiens; K-652 [sic], single dose 10 μM; read-out: growth inhibition (GI%)
MOLT-4 (leukemia) = experiment: NCI-60 SRB cytotoxicity screen; details: Homo sapiens; MOLT-4, single dose 10 μM; read-out: growth inhibition (GI%)
[7] = tested on: NCI/ADR-RES (ovarian cancer); experiment: NCI-60 SRB cytotoxicity screen; details: Homo sapiens, single dose 10 μM, read-out: growth inhibition (GI%)
U251 (CNS cancer) = experiment: NCI-60 SRB cytotoxicity screen; details: Homo sapiens, U-251; U251, single dose 10 μM; read-out: growth inhibition (GI%)
IGROV1 (ovarian cancer) = experiment: NCI-60 SRB cytotoxicity screen; details: Homo sapiens, IGROV-1; IGROV1, single dose 10 μM; read-out: growth inhibition (GI%)
DU-145 (prostate cancer) = experiment: NCI-60 SRB cytotoxicity screen; details: Homo sapiens; DU-145, single dose 10 μM; read-out: growth inhibition (GI%)
HCT-116 (colon cancer) = experiment: NCI-60 SRB cytotoxicity screen; details: Homo sapiens; HCT-116, single dose 10 μM; read-out: growth inhibition (GI%)
CCRF-CEM (leukemia) = experiment: NCI-60 SRB cytotoxicity screen; details: Homo sapiens, single dose 10 μM, read-out: growth inhibition (GI%)
A498 (renal cancer) = experiment: NCI-60 SRB cytotoxicity screen; details: Homo sapiens; A498, single dose 10 μM; read-out: growth inhibition (GI%)
HT29 (colon cancer) = experiment: NCI-60 SRB cytotoxicity screen; details: Homo sapiens, HT-29; HT29, single dose 10 μM; read-out: growth inhibition (GI%)

Row | SMILES | inhibition at 10 µM (SN12C (renal cancer)) | inhibition at 10 µM (COLO 205 (colon cancer)) | inhibition at 10 µM (SNB-19 (CNS cancer)) | inhibition at 10 µM (HS 578T (breast cancer)) | inhibition at 10 µM [1] | inhibition at 10 µM (OVCAR-8 (ovarian cancer)) | inhibition at 10 µM (SF-539 (CNS cancer)) | inhibition at 10 µM (SNB-75 (CNS cancer)) | inhibition at 10 µM [3] | inhibition at 10 µM (UO-31 (renal cancer)) | inhibition at 10 µM [4] | inhibition at 10 µM (SK-MEL-28 (melanoma)) | inhibition at 10 µM [5] | inhibition at 10 µM (OVCAR-3 (ovarian cancer)) | inhibition at 10 µM (T-47D (breast cancer)) | inhibition at 10 µM (LOX IMVI (melanoma)) | inhibition at 10 µM (SF-268 (CNS cancer)) | inhibition at 10 µM [6] | inhibition at 10 µM (OVCAR-5 (ovarian cancer)) | inhibition at 10 µM (K-562 (leukemia)) | further results
1 | CCc1cccc2cc(-c3cc(-c4ccc(OC)c(OC)c4)[nH]c(=S)c3C#N)c(Cl)nc12 [Compound 5b, 4-(2-Chloro-8-ethylquinolin-3-yl)-6-(3,4-dimethoxyphenyl)-2-thioxo-1,2-dihydropyridine-3-carbonitrile] | 21.7% | < 10% | 22.6% | 23.1% | 20.3% | 31.5% | 22% | 10.8% | 20.3% | 23.3% | 19.1% | < 10% | < 10% | < 10% | 41.1% | < 10% | 32.2% | 22.8% | < 10% | 28% | cytotoxic activity over the cell lines (in words) [2]: slight cytotoxic activity; inhibition at 10 µM (M14 (melanoma)): < 10%; inhibition at 10 µM (MOLT-4 (leukemia)): 44.3%; inhibition at 10 µM [7]: 24.9%; inhibition at 10 µM (U251 (CNS cancer)): 13.7%; inhibition at 10 µM (IGROV1 (ovarian cancer)): < 10%; inhibition at 10 µM (DU-145 (prostate cancer)): 20.2%; inhibition at 10 µM (HCT-116 (colon cancer)): < 10%; inhibition at 10 µM (CCRF-CEM (leukemia)): 28.8%
2 | CCc1cccc2cc(C3C=C(c4ccc(OC)c(OC)c4)NC(=S)N3)c(Cl)nc12 (stereo not shown) [Compound 6b, 4-(2-Chloro-8-ethylquinolin-3-yl)-6-(3,4-dimethoxyphenyl)-3,4-dihydropyrimidine-2(1H)-thione] | < 10% | < 10% | < 10% | 12.9% | 15.4% | < 10% | < 10% | < 10% | < 10% | 37.2% | < 10% | < 10% | < 10% | < 10% | 24.9% | < 10% | 16.6% | 13.2% | < 10% | 10.5% | inhibition at 10 µM (M14 (melanoma)): < 10%; inhibition at 10 µM (MOLT-4 (leukemia)): 53.3%; inhibition at 10 µM [7]: 11.1%; inhibition at 10 µM (U251 (CNS cancer)): < 10%; inhibition at 10 µM (IGROV1 (ovarian cancer)): < 10%; inhibition at 10 µM (A498 (renal cancer)): < 10%; inhibition at 10 µM (DU-145 (prostate cancer)): < 10%; inhibition at 10 µM (HCT-116 (colon cancer)): 17.2%; inhibition at 10 µM (CCRF-CEM (leukemia)): 11%; inhibition at 10 µM (HT29 (colon cancer)): < 10%
3 | CCc1cccc2cc(-c3cc(-c4ccc(F)cc4)[nH]c(=O)c3C#N)c(Cl)nc12 [Compound 4d, 4-(2-Chloro-8-ethylquinolin-3-yl)-6-(4-fluorophenyl)-2-oxo-1,2-dihydropyridine-3-carbonitrile] | < 10% | < 10% | < 10% | < 10% | 14.3% | < 10% | < 10% | < 10% | 12% | 27.9% | 19.9% | < 10% | < 10% | < 10% | 14.4% | 15.3% | < 10% | < 10% | < 10% | 27.2% | cytotoxic activity over the cell lines (in words) [2]: mild cytotoxic activity; inhibition at 10 µM (MOLT-4 (leukemia)): 15%; inhibition at 10 µM [7]: < 10%; inhibition at 10 µM (U251 (CNS cancer)): < 10%; inhibition at 10 µM (IGROV1 (ovarian cancer)): < 10%; inhibition at 10 µM (A498 (renal cancer)): < 10%; inhibition at 10 µM (DU-145 (prostate cancer)): < 10%; inhibition at 10 µM (HCT-116 (colon cancer)): < 10%; inhibition at 10 µM (CCRF-CEM (leukemia)): < 10%
